In brackets after ≈: the same amount, converted by molar mass.
Columns and labels:
Escherichia coli = test: Inhibition of transcription and translation activity in Escherichia coli by luciferase reporter assay; assay type: functional, organism-based
Staphylococcus aureus = test: Antibacterial activity against Staphylococcus aureus UC76 SA1 by micro-broth method; assay type: functional
Streptococcus pneumoniae = test: Antibacterial activity against Streptococcus pneumoniae SV1 SP3 by micro-broth method; assay type: functional
Streptococcus pyogenes = test: Antibacterial activity against Streptococcus pyogenes C203 SP1-1 by micro-broth method; assay type: functional
Enterococcus faecalis = test: Antibacterial activity against Enterococcus faecalis MG2 EF1 by micro-broth method; assay type: functional
Haemophilus influenzae = test: Antibacterial activity against Heamophilus influenzae HI3542 by microbroth method; assay type: functional
Moraxella catarrhalis = test: Antibacterial activity against Moraxella catarrhalis BC-3531 by micro-broth method; assay type: functional

Compound	IC50 (Escherichia coli)	MIC (Staphylococcus aureus)	MIC (Streptococcus pneumoniae)	MIC (Streptococcus pyogenes)	MIC (Enterococcus faecalis)	MIC (Haemophilus influenzae)	MIC (Moraxella catarrhalis)
CCCc1n[nH]c2c1CCCc1cc(N3C[C@H](CNC(C)=O)OC3=O)ccc1-2	3.1 µM	2 µg/mL (≈ 5.23 µM)	0.5 µg/mL (≈ 1.31 µM)	0.5 µg/mL (≈ 1.31 µM)	1 µg/mL (≈ 2.61 µM)	16 µg/mL (≈ 41.8 µM)	4 µg/mL (≈ 10.5 µM)
CC(=O)NC[C@H]1CN(c2ccc3c(c2)CCCc2c(C(F)(F)F)n[nH]c2-3)C(=O)O1	1.3 µM	1 µg/mL (≈ 2.45 µM)	0.25 µg/mL (≈ 0.612 µM)	1 µg/mL (≈ 2.45 µM)	1 µg/mL (≈ 2.45 µM)	4 µg/mL (≈ 9.79 µM)	1 µg/mL (≈ 2.45 µM)
CC(=O)NC[C@H]1CN(c2ccc3c(c2)CCCc2c(C(C)C)n[nH]c2-3)C(=O)O1	4.3 µM	2 µg/mL (≈ 5.23 µM)	0.5 µg/mL (≈ 1.31 µM)	1 µg/mL (≈ 2.61 µM)	2 µg/mL (≈ 5.23 µM)	16 µg/mL (≈ 41.8 µM)	8 µg/mL (≈ 20.9 µM)

Stronger by IC50 (Escherichia coli), values ahead:

IC50 (Escherichia coli)	MIC (Staphylococcus aureus)	MIC (Streptococcus pneumoniae)	MIC (Streptococcus pyogenes)	MIC (Enterococcus faecalis)	MIC (Haemophilus influenzae)	MIC (Moraxella catarrhalis)	Compound
1.2 µM	1 µg/mL (≈ 2.82 µM)	0.5 µg/mL (≈ 1.41 µM)	0.5 µg/mL (≈ 1.41 µM)	1 µg/mL (≈ 2.82 µM)	4 µg/mL (≈ 11.3 µM)	4 µg/mL (≈ 11.3 µM)	CC(=O)NC[C@H]1CN(c2ccc3c(c2)CCCc2c(C)n[nH]c2-3)C(=O)O1
1.1 µM	0.5 µg/mL (≈ 1.36 µM)	0.125 µg/mL (≈ 0.339 µM)	0.125 µg/mL (≈ 0.339 µM)	0.25 µg/mL (≈ 0.679 µM)	4 µg/mL (≈ 10.9 µM)	1 µg/mL (≈ 2.71 µM)	CCc1n[nH]c2c1CCCc1cc(N3C[C@H](CNC(C)=O)OC3=O)ccc1-2

Reference: ChEMBL document CHEMBL1140680 (Bioorg Med Chem Lett, 2007)
